# Article PMC4552603 (Pharmacology, biochemistry, and behavior, 2015)
# Structures can show the parent of a compound that is named as a salt.
# Columns and labels:
# [1] = system: rats; settings: rat, in vivo
# [2] = system: rats; assay: Conditioned place preference; format: in vivo, rat; settings: morphine 1 mg/kg s.c.; for mean change from baseline (time in drug-paired compartment): rats
smiles,measurement,setting,value
"CN1CC[C@]23c4c5ccc(O)c4O[C@H]2[C@@H](O)C=C[C@H]3[C@H]1C5 [Morphine, Morphine sulfate]",responding (drug infusions) vs saline,[1],significantly greater responding than saline
same,place preference,"[2]; vs saline, two-way ANOVA p = 0.0013",significant place preference
same,mean change from baseline (time in drug-paired compartment),[2]; test session one,+83.4 sec
same,mean change from baseline (time in drug-paired compartment),[2]; test session two,+96.62 sec
